This note sets out measurements from ChEMBL document CHEMBL1909046, “DrugMatrix in vitro pharmacology data”.

For data set [1], the target named is T1, Alpha-2C adrenergic receptor (Homo sapiens, UniProt P18825).
T1 sequence (P18825 whole entry): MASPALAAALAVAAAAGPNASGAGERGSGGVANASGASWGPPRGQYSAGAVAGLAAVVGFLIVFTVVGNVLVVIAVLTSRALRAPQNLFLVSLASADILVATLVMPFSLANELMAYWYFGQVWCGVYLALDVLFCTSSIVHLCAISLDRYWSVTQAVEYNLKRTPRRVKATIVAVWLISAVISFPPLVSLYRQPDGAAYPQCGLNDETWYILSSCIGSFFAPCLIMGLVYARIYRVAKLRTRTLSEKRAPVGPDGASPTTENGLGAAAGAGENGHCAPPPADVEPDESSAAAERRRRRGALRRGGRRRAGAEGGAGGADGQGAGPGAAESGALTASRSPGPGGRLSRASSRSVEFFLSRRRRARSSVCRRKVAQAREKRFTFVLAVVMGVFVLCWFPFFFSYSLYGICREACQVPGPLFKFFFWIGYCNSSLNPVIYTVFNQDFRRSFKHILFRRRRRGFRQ
Kind of data set: DRUGMATRIX: Adrenergic Alpha-2C radioligand binding (ligand: [3H] MK-912). Format: cell membranes, Sf9, Membrane.

The target of data set [2] is Beta-2 adrenergic receptor (Homo sapiens, UniProt P07550). Kind of data set: DRUGMATRIX: Adrenergic beta2 radioligand binding (ligand: [3H] CGP-12177). Format: cell membranes, CHO, Membrane. As to conditions: Not Active = under 50% inhibition at 10 µM.
Beta-2 adrenergic receptor, sequence (P07550 whole entry): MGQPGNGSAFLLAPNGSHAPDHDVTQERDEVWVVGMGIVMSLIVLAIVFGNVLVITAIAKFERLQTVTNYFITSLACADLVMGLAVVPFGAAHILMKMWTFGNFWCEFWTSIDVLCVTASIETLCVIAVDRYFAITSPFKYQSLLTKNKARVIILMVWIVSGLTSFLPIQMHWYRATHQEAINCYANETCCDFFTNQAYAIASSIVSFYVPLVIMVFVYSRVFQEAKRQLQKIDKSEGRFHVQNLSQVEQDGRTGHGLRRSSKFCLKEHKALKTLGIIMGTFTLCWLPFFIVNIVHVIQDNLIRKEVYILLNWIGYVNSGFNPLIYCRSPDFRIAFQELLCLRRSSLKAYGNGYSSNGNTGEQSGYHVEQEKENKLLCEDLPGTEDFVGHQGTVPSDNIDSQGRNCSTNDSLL
In another data set the target is D(1A) dopamine receptor (Homo sapiens, UniProt P21728). Kind of data set: DRUGMATRIX: Dopamine D1 radioligand binding (ligand: [3H] SCH-23390). As to conditions: Not Active = under 50% inhibition at 10 µM. The data set is classed as cell membranes, CHO, Membrane.
D(1A) dopamine receptor, sequence (P21728 whole entry): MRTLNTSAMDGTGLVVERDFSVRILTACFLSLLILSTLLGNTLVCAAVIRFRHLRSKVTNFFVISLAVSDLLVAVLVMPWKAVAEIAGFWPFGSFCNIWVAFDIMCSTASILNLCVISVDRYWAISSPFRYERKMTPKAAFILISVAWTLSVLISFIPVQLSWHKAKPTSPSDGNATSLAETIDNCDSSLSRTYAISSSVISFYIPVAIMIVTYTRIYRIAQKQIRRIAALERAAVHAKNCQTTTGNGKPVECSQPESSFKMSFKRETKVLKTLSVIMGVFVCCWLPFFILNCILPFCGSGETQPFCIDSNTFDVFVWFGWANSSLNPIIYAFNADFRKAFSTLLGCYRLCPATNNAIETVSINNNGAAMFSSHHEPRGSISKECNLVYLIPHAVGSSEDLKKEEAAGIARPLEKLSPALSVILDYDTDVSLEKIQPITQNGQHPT
The target in data set [3] is T2, Polyunsaturated fatty acid lipoxygenase ALOX15 (Oryctolagus cuniculus, UniProt P12530).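 Note: inhibition of 15-lipoxygenase enzyme activity measured with linoleic acid as the substrate; in other assays of this panel Not Active means under 50% inhibition at 10 µM.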
T2 sequence (P12530 whole entry): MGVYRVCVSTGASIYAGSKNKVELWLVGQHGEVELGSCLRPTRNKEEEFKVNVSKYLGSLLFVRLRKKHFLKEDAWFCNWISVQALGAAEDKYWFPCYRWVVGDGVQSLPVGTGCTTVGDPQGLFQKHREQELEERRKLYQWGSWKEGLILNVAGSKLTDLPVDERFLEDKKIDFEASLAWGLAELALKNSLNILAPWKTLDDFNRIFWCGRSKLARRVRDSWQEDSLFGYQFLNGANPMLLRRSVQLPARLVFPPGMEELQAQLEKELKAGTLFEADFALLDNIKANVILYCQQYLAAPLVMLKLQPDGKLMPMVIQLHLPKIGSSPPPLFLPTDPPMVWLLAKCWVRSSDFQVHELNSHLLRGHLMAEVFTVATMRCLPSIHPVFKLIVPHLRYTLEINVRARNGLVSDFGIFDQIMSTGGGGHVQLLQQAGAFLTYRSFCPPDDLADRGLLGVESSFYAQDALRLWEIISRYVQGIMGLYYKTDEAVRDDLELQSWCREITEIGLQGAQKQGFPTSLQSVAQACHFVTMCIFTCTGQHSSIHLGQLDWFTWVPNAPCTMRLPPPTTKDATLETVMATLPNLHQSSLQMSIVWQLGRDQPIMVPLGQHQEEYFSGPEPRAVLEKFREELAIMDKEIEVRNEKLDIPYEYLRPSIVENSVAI
Put plainly: biochemical. Format: tissue-based, Reticulocytes.

The target in data set [4] is Protein phosphatase 3 catalytic subunit alpha (Homo sapiens, UniProt Q08209). Further details: species or system Escherichia coli.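 Note: inhibition of calcineurin (PP2B) enzyme activity, measured with DiFMUP as the substrate; in other assays of this panel Not Active means under 50% inhibition at 10 µM.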
A further data set deals with Cytochrome P450 2E1 (Homo sapiens, UniProt P05181). Particulars: bti-tn-5b1-4.
Cytochrome P450 2E1, sequence (P05181 whole entry): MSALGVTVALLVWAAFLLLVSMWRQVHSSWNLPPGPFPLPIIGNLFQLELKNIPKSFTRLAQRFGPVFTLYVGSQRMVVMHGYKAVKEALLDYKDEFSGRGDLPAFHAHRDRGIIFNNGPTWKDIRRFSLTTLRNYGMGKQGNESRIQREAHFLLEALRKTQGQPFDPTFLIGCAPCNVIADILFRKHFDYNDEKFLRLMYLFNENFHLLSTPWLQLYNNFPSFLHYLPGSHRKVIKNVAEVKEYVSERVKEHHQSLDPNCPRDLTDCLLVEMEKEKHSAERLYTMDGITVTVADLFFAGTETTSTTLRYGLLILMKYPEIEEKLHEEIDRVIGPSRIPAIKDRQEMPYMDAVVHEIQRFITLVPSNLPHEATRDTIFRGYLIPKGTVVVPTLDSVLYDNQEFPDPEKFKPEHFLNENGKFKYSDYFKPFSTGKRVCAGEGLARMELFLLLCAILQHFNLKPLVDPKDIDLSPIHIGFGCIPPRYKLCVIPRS

Usually IC50 stands for the point on the concentration scale where inhibition reaches its midpoint. As usually defined, the Ki is a dissociation constant, usually derived from enzyme kinetics or from competition with a known ligand. As for `COc1cc(OC)c(C(=O)CCCN2CCCC2)c(OC)c1` [BUFLOMEDIL], the IC50 entry (in data set [1] (sf9); in data set [2] (cho); on D(1A) dopamine receptor (cho); in data set [3] (reticulocytes); in data set [4]; on Cytochrome P450 2E1) was “Not Active” throughout. The Ki entry at Cytochrome P450 2E1 is on record as “Not Active”.
Consider `Cn1c(=O)c2c(ncn2C)n(C)c1=O` [CAFFEINE], for which the IC50 result (in data set [1] (sf9); in data set [2] (cho); at D(1A) dopamine receptor (cho); in data set [3] (reticulocytes); in data set [4]; against Cytochrome P450 2E1) was “Not Active” each time. For the same compound, the Ki entry on Cytochrome P450 2E1 was “Not Active”.
Turning to `CO/N=C(\C(=O)N[C@@H]1C(=O)N2C(C(=O)O)=C(COC(C)=O)CS[C@H]12)c1csc(N)n1` [CEFOTAXIME], the IC50 result (in data set [1] (sf9); in data set [2] (cho); on D(1A) dopamine receptor (cho); in data set [3] (reticulocytes); in data set [4]; on Cytochrome P450 2E1) was “Not Active” throughout. Moreover, at Cytochrome P450 2E1, the Ki result was “Not Active”.
`CNC1=Nc2ccc(Cl)cc2C(c2ccccc2)=[N+]([O-])C1` [CHLORDIAZEPOXIDE]: the IC50 result (in data set [1] (sf9); in data set [2] (cho); on D(1A) dopamine receptor (cho); in data set [3] (reticulocytes); in data set [4]; at Cytochrome P450 2E1) was “Not Active” in each case. The Ki entry on Cytochrome P450 2E1 is on record as “Not Active”.
Take `Cc1cc(O)cc(C)c1Cl` [CHLOROXYLENOL]: the IC50 result (in data set [1] (sf9); in data set [2] (cho); at D(1A) dopamine receptor (cho); in data set [3] (reticulocytes); in data set [4]; against Cytochrome P450 2E1) was “Not Active” in each case. Besides, the Ki entry on Cytochrome P450 2E1 is “Not Active”.
`CCCNC(=O)NS(=O)(=O)c1ccc(Cl)cc1` [CHLORPROPAMIDE]: the IC50 entry (in data set [1] (sf9); in data set [2] (cho); on D(1A) dopamine receptor (cho); in data set [3] (reticulocytes); in data set [4]; against Cytochrome P450 2E1) was “Not Active” each time. At Cytochrome P450 2E1, the Ki result is reported as “Not Active”.
Regarding `NS(=O)(=O)c1cc(C2(O)NC(=O)c3ccccc32)ccc1Cl` (configuration not stated) [CHLORTHALIDONE], the IC50 result (in data set [1] (sf9); in data set [2] (cho); on D(1A) dopamine receptor (cho); in data set [3] (reticulocytes); in data set [4]; against Cytochrome P450 2E1) was “Not Active” each time. The Ki result on Cytochrome P450 2E1 is “Not Active”.
Regarding `O=C(O)CC(O)(CC(=O)O)C(=O)O` [CITRIC ACID], the IC50 result (in data set [1] (sf9); in data set [2] (cho); on D(1A) dopamine receptor (cho); in data set [3] (reticulocytes); in data set [4]; on Cytochrome P450 2E1) was “Not Active” each time. The Ki result at Cytochrome P450 2E1 is “Not Active”.
`CC(C)NCC(O)c1ccccc1Cl` (configuration not stated) [CLORPRENALINE]: the IC50 entry in data set [1] (sf9) was “Not Active”; in data set [2] (read-out: IC50) it was 1990 nM; at D(1A) dopamine receptor (cho) it was “Not Active”; in data set [3] (reticulocytes), “Not Active”; in data set [4], “Not Active”; on Cytochrome P450 2E1, “Not Active”. The Ki in data set [2] (read-out: Ki) is 1370 nM; on Cytochrome P450 2E1 it was “Not Active”.
Regarding `CN1CCN(C(c2ccccc2)c2ccccc2)CC1` [CYCLIZINE], the IC50 entry (in data set [1] (sf9); in data set [2] (cho); at D(1A) dopamine receptor (cho); in data set [3] (reticulocytes); in data set [4]; against Cytochrome P450 2E1) was “Not Active” in each case. Moreover, on Cytochrome P450 2E1, the Ki entry is “Not Active”.
As for `CN1C[C@@H]2C[C@H]1CN2c1cc2c(cc1F)c(=O)c(C(=O)O)cn2C1CC1` [DANOFLOXACIN], the IC50 result (in data set [1] (sf9); in data set [2] (cho); at D(1A) dopamine receptor (cho); in data set [3] (reticulocytes); in data set [4]; against Cytochrome P450 2E1) was “Not Active” each time. The Ki entry at Cytochrome P450 2E1 is recorded as “Not Active”.
Consider `COc1cccc2c1C(=O)c1c(O)c3c(c(O)c1C2=O)C[C@@](O)(C(C)=O)C[C@@H]3O[C@H]1C[C@H](N)[C@H](O)[C@H](C)O1` [DAUNORUBICIN], for which the IC50 result (in data set [1] (sf9); in data set [2] (cho); on D(1A) dopamine receptor (cho); in data set [3] (reticulocytes); in data set [4]; against Cytochrome P450 2E1) was “Not Active” throughout. Moreover, the Ki result at Cytochrome P450 2E1 is “Not Active”.
With `O=C(O)c1cc(-c2ccc(F)cc2F)ccc1O` [DIFLUNISAL], the IC50 entry (in data set [1] (sf9); in data set [2] (cho); at D(1A) dopamine receptor (cho); in data set [3] (reticulocytes); in data set [4]; against Cytochrome P450 2E1) was “Not Active” throughout. In addition, at Cytochrome P450 2E1, the Ki result is given as “Not Active”.
Consider `C[S+](C)[O-]` [DIMETHYL SULFOXIDE], for which the IC50 result (in data set [1] (sf9); in data set [2] (cho); at D(1A) dopamine receptor (cho); in data set [3] (reticulocytes); in data set [4]; on Cytochrome P450 2E1) was “Not Active” each time. In addition, on Cytochrome P450 2E1, the Ki result is on record as “Not Active”.
Consider `CC1=NN(c2ccccc2)C(=O)C1` [EDARAVONE], for which the IC50 result (in data set [1] (sf9); in data set [2] (cho); on D(1A) dopamine receptor (cho); in data set [3] (reticulocytes); in data set [4]; at Cytochrome P450 2E1) was “Not Active” each time. The Ki result on Cytochrome P450 2E1 was “Not Active”.
On to `CC(C)C[C@H]1C(=O)N2CCC[C@H]2[C@]2(O)O[C@](NC(=O)[C@@H]3C=C4c5cccc6[nH]cc(c56)C[C@H]4N(C)C3)(C(C)C)C(=O)N12` [ERGOCRYPTINE], for which the IC50 in data set [1] (read-out: IC50) was 38 nM; in data set [2] (cho), “Not Active”; at D(1A) dopamine receptor (read-out: IC50), 403 nM; in data set [3] (reticulocytes) it was “Not Active”; in data set [4] it was “Not Active”; at Cytochrome P450 2E1 it was “Not Active”. Besides, the Ki in data set [1] (read-out: Ki) is 5.48 nM; on D(1A) dopamine receptor (read-out: Ki), 202 nM; on Cytochrome P450 2E1, “Not Active”.
Turning to `C[C@]12CC[C@@H]3c4ccc(O)cc4CC[C@H]3[C@@H]1C[C@@H](O)[C@@H]2O` [ESTRIOL], the IC50 result in data set [1] (sf9) is “Not Active”; in data set [2] (cho) it was “Not Active”; at D(1A) dopamine receptor (cho), “Not Active”; in data set [3] (read-out: IC50), 8.64 µM; in data set [4], “Not Active”; at Cytochrome P450 2E1 it was “Not Active”. The Ki result at Cytochrome P450 2E1 is “Not Active”.
Turning to `C#C[C@]1(O)CC[C@H]2[C@@H]3CCC4=CC(=O)CC[C@]4(C)[C@H]3CC[C@@]21C` [ETHISTERONE], the IC50 result (in data set [1] (sf9); in data set [2] (cho); at D(1A) dopamine receptor (cho); in data set [3] (reticulocytes); in data set [4]; against Cytochrome P450 2E1) was “Not Active” throughout. In addition, on Cytochrome P450 2E1, the Ki entry is on record as “Not Active”.
On to `CC(O)(P(=O)(O)O)P(=O)(O)O` [ETIDRONIC ACID], for which the IC50 entry (in data set [1] (sf9); in data set [2] (cho); on D(1A) dopamine receptor (cho); in data set [3] (reticulocytes); in data set [4]; against Cytochrome P450 2E1) was “Not Active” in each case. For the same compound, the inhibition constant (Ki) result on Cytochrome P450 2E1 is “Not Active”.
For the compound `CC(C)(C(=O)O)c1ccc(C(O)CCCN2CCC(C(O)(c3ccccc3)c3ccccc3)CC2)cc1` (configuration not stated) [FEXOFENADINE], the IC50 result (in data set [1] (sf9); in data set [2] (cho); at D(1A) dopamine receptor (cho); in data set [3] (reticulocytes); in data set [4]; against Cytochrome P450 2E1) was “Not Active” throughout. The Ki entry at Cytochrome P450 2E1 is given as “Not Active”.
`CN1CCN(c2c(F)cc3c(=O)c(C(=O)O)cn(CCF)c3c2F)CC1` [FLEROXACIN]: the IC50 entry (in data set [1] (sf9); in data set [2] (cho); on D(1A) dopamine receptor (cho); in data set [3] (reticulocytes); in data set [4]; against Cytochrome P450 2E1) was “Not Active” each time. In addition, the Ki entry at Cytochrome P450 2E1 is “Not Active”.
Consider `O=c1[nH]c(=O)n([C@H]2C[C@H](O)[C@@H](CO)O2)cc1F` [FLOXURIDINE], for which the half-inhibitory concentration (IC50) result (in data set [1] (sf9); in data set [2] (cho); on D(1A) dopamine receptor (cho); in data set [3] (reticulocytes); in data set [4]; at Cytochrome P450 2E1) was “Not Active” in each case. Further, at Cytochrome P450 2E1, the Ki entry is recorded as “Not Active”.
